Activity calls are given as the source filed them.
Assays:
Conditions in all cases: Homo sapiens
HUVEC [1] = test: Antiangiogenic activity in HUVEC assessed as inhibition of VEGF-induced tube formation after 11 days; type: functional, cell-based
HUVEC [2] = test: Antiangiogenic activity in HUVEC assessed as reduction of VEGF-induced vascular endothelial cadherin mRNA level at 20 uM after 24 hrs by RT-PCR analysis; type: functional, cell-based
HUVEC [3] = test: Antiangiogenic activity in HUVEC assessed as inhibition of VEGF-induced cell migration at 1 to 20 uM after 22 hrs
HUVEC [4] = test: Antiangiogenic activity in HUVEC assessed as reduction of VEGF-induced tube length at 1 to 20 uM after 11 days; type: functional, cell-based
HUVEC [5] = test: Antiangiogenic activity in HUVEC assessed as inhibition of VEGF-induced cell migration after 22 hrs
HUVEC [6] = test: Antiangiogenic activity in HUVEC assessed as reduction of VEGF-induced cyclins A2 and B1 mRNA level at 20 uM after 24 hrs by RT-PCR analysis; type: functional, cell-based
HUVEC [7] = test: Antiangiogenic activity in HUVEC assessed as inhibition of VEGF-induced tube formation at 1 to 20 uM after 11 days; type: functional, cell-based
HUVEC [8] = test: Antiangiogenic activity in HUVEC assessed as reduction of VEGF-induced integrins alpha3 and beta1 mRNA level at 20 uM after 24 hrs by RT-PCR analysis; type: functional, cell-based
HUVEC [9] = test: Antiangiogenic activity in HUVEC assessed as reduction of VEGF-induced CDK1 mRNA level at 20 uM after 24 hrs by RT-PCR analysis; type: functional, cell-based

O=C1C[C@H]2C(=C3c4c2ccc(O)c4[C@@H](O)C[C@@H]3O)c2cccc(O)c21
active: inhibition (HUVEC [1]) Dose-dependent effect | Activity (HUVEC [2]) | inhibition (HUVEC [3]) | inhibition (HUVEC [4]) | inhibition (HUVEC [5]) Dose-dependent effect | Activity (HUVEC [6]) | inhibition (HUVEC [7]) | Activity (HUVEC [8]) | Activity (HUVEC [9])

— ChEMBL document CHEMBL3232858, “Antiangiogenic activity of hypoxylonol C” (J Nat Prod, 2014)
